# In PubChem BioAssay AID1918931 (Molecular Pharmacology Branch, DTP, NCI, 2023):
# Several values for one entry are separate records, joined by “and”; a condition that tells them apart may be missing. Identical values can stand only once.
# Tested on: 138582-337-R-J1-PDC complex spheroid viability
# Assay: Anticancer human tumor 138582-337-R-J1-PDC patient-derived Merkel cell tumor cell line growth inhibition
# Details: for viability, T/C: stronger effect = lower value
# How it was run: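 Multicellular complex spheroids of tumor cells with human endothelial cells (HUVEC) and mesenchymal stem cells; the LSD1 inhibitor iadademstat was combined with standard-of-care or investigational agents. Top concentration at or near clinical Cmax, half-log dilutions; final DMSO ≤0.25%.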
# [1] = curve of first compound, second compound 0.1 µM
# [2] = curve of first compound, second compound 0.316 µM
# [3] = curve of first compound, second compound 1 µM
# [4] = curve of first compound, second compound 3.16 µM
# [5] = curve of first compound, second compound 10 µM
# [6] = second compound 0.1 µM, first compound 0.00949 µM
# [7] = second compound 0.1 µM, first compound 0.03 µM
# [8] = second compound 0.1 µM, first compound 0.0949 µM
# [9] = second compound 0.1 µM, first compound 0.3 µM
# [10] = second compound 0.316 µM, first compound 0.00949 µM
# [11] = second compound 0.316 µM, first compound 0.03 µM
# [12] = second compound 0.316 µM, first compound 0.0949 µM
# [13] = second compound 0.316 µM, first compound 0.3 µM
# [14] = second compound 1 µM, first compound 0.00949 µM
# [15] = second compound 1 µM, first compound 0.03 µM
# [16] = second compound 1 µM, first compound 0.0949 µM
# [17] = second compound 1 µM, first compound 0.3 µM
# [18] = second compound 3.16 µM, first compound 0.00949 µM
# [19] = second compound 3.16 µM, first compound 0.03 µM
# [20] = second compound 3.16 µM, first compound 0.0949 µM
# [21] = second compound 3.16 µM, first compound 0.3 µM
# [22] = second compound 10 µM, first compound 0.00949 µM
# [23] = second compound 10 µM, first compound 0.03 µM
# [24] = second compound 10 µM, first compound 0.0949 µM
# [25] = second compound 10 µM, first compound 0.3 µM
# 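Also: spheroids exposed to agents for 7 days.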
# 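For viability, T/C in this document: 100% = DMSO vehicle control viability.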
SMILES,IC50 [1] [µM],IC50 [2] [µM],IC50 [3] [µM],IC50 [4] [µM],IC50 [5] [µM],"viability, T/C [6] [%]","viability, T/C [7] [%]","viability, T/C [8] [%]","viability, T/C [9] [%]","viability, T/C [10] [%]","viability, T/C [11] [%]","viability, T/C [12] [%]","viability, T/C [13] [%]","viability, T/C [14] [%]","viability, T/C [15] [%]","viability, T/C [16] [%]","viability, T/C [17] [%]","viability, T/C [18] [%]","viability, T/C [19] [%]","viability, T/C [20] [%]",further results
COc1cc(C2c3cc4c(cc3C(OC3OC5COC(C)OC5C(O)C3O)C3COC(=O)C23)OCO4)cc(OC)c1O (configuration not stated) + NC1CC1c1ccc(-c2cccc(O)c2)cc1,0.762,0.69,0.559,0.767,0.265,60.8,72.3,63,48.5,67.1,69.8,63.1,51.1,76.8,75.9,60.6,53.2,69.7,75.9,65.9,"viability, T/C (second compound 0.1 µM, first compound 0.949 µM): 52.9%; viability, T/C (second compound 0.1 µM, first compound 3 µM): 36.7%; viability, T/C (second compound 0.316 µM, first compound 0.949 µM): 52.3%; viability, T/C (second compound 0.316 µM, first compound 3 µM): 29.9%; viability, T/C (second compound 1 µM, first compound 0.949 µM): 45%; viability, T/C (second compound 1 µM, first compound 3 µM): 40.7%; viability, T/C [21]: 51.8%; viability, T/C (second compound 3.16 µM, first compound 0.949 µM): 53.1%; viability, T/C (second compound 3.16 µM, first compound 3 µM): 31.6%; viability, T/C [22]: 71.2%; viability, T/C [23]: 77.3%; viability, T/C [24]: 58.4%; viability, T/C [25]: 50.1%; viability, T/C (second compound 10 µM, first compound 0.949 µM): 41.4%; viability, T/C (second compound 10 µM, first compound 3 µM): 37%"
CC[C@@]1(O)C(=O)OCc2c1cc1n(c2=O)Cc2cc3c(CN(C)C)c(O)ccc3nc2-1,–,–,–,–,–,–,–,–,–,–,–,–,–,–,–,–,–,–,–,–,"viability, T/C (compound 0.000316 µM): 91% and 92.2%; viability, T/C (compound 0.001 µM): 103% and 101%; viability, T/C (compound 0.00316 µM): 77.7% and 62.7%; viability, T/C (compound 0.01 µM): 83.7% and 57.4%; viability, T/C (compound 0.0316 µM): 95% and 57.3%; viability, T/C (compound 0.1 µM): 85.6% and 47.7%; IC50 (curve of compound): > 0.1 µM"
CCc1c2c(nc3ccc(O)cc13)-c1cc3c(c(=O)n1C2)COC(=O)[C@]3(O)CC + NC1CC1c1ccc(-c2cccc(O)c2)cc1,0.00456,0.00269,0.00328,0.00401,0.00559,23.9,0.24,0.19,0.2,23.5,0.59,0.13,0.24,23.9,0.3,0.16,0.21,25.3,0.56,0.14,"viability, T/C (second compound 0.1 µM, first compound 0.000949 µM): 64.6%; viability, T/C (second compound 0.1 µM, first compound 0.003 µM): 65.2%; viability, T/C (second compound 0.316 µM, first compound 0.000949 µM): 73.8%; viability, T/C (second compound 0.316 µM, first compound 0.003 µM): 45.9%; viability, T/C (second compound 1 µM, first compound 0.000949 µM): 57.1%; viability, T/C (second compound 1 µM, first compound 0.003 µM): 51.3%; viability, T/C (second compound 3.16 µM, first compound 0.000949 µM): 78%; viability, T/C (second compound 3.16 µM, first compound 0.003 µM): 57.7%; viability, T/C [21]: 0.23%; viability, T/C (second compound 10 µM, first compound 0.000949 µM): 82.4%; viability, T/C (second compound 10 µM, first compound 0.003 µM): 68%; viability, T/C [22]: 34.7%; viability, T/C [23]: 0.44%; viability, T/C [24]: 0.21%; viability, T/C [25]: 0.33%"
